Measurements as given in patent US4012385A, “Antibacterial quinoxaline 1,4-dioxides” (Pfizer Inc., priority 1975, dated 1977).
≈ marks a conversion by molar mass, not a printed value.

How the values were obtained:
Streptococcus pyogenes = test: in vitro antibacterial activity (MIC), two-fold serial dilution in Brain-Heart Infusion broth; conditions: read-out: MIC Strep pyogenes
Procedure: (§1) The broth is inoculated with bacteria, and with the quinoxaline 1,4-dioxide or 1,3 -dihydrofuro[3,4-b]quinoxaline 4,9-dioxide, and then it is incubated overnight at 37 ° C., under anaerobic conditions. On the next day, the test is read visually. The minimum inhibitory concentration (MIC) of test compound is the lowest concentration which prevents turbidity, i.e. which prevents growth of the microorganism.

Escherichia coli = test: as above; conditions: read-out: MIC Esch coli
Procedure: as §1

Salmonella Choleraesuis [1] = test: as above; conditions: Salmonella enterica, read-out: MIC Sal. Choleraesuis
Procedure: as §1

Salmonella Choleraesuis [2] = conditions: mice, 25 mg./kg., multiple dosing, percentage of animals which survive
Procedure: The test compound is administered using a multiple dosing regimen at a dosage of 25 mg./kg., and using either the oral (PO) or the subcutaneous (SC) route. The inoculum of bacteria varies from one to about ten times the amount needed to kill 100% of the mice, under conditions of the test. At the end of the test, the activity of a compound is assessed by counting the number of survivors among the treated animals and expressing the activity of a compound as the percentage of animals which survive.

SMILES | MIC (Streptococcus pyogenes) [µg/mL] | MIC (Escherichia coli) [µg/mL] | MIC (Salmonella Choleraesuis [1]) [µg/mL] | Percentage protection vs. Sal. Choleraesuis, PO (Salmonella Choleraesuis [2]) [%] | Percentage protection vs. Sal. Choleraesuis, SC (Salmonella Choleraesuis [2]) [%]
COC1(c2ccccc2)OCc2c1[n+]([O-])c1ccccc1[n+]2[O-] (stereo not shown) [1-Methoxy-1-phenyl-1,3-dihydrofuro[3,4-b]quinoxaline 4,9-Dioxide] | 25 (≈ 80.6 µM) | 25 (≈ 80.6 µM) | 100 (≈ 322 µM) | 30 | 30
CC(=O)OCc1c(C(=O)c2ccccc2)[n+]([O-])c2ccccc2[n+]1[O-] [2-Benzoyl-3-acetoxymethylquinoxaline 1,4-Dioxide] | 12.5 (≈ 36.9 µM) | 12.5 (≈ 36.9 µM) | 50 (≈ 148 µM) | 50 | 10
CC(=O)SCc1c(C(=O)c2ccccc2)[n+]([O-])c2ccccc2[n+]1[O-] [2-Benzoyl-3-acetylthiomethylquinoxaline 1,4-Dioxide] | > 200 | > 200 | > 200 | 30 | 20
O=C(c1ccccc1)c1c(CO)[n+]([O-])c2ccccc2[n+]1[O-] [2-Benzoyl-3-hydroxymethylquinoxaline 1,4-Dioxide] | 0.78 (≈ 2.63 µM) | 1.56 (≈ 5.27 µM) | 6.25 (≈ 21.1 µM) | 80 | 60
CS(=O)(=O)Cc1c(C(=O)c2ccccc2)[n+]([O-])c2ccccc2[n+]1[O-] [2-Benzoyl-3-methylsulfonylmethylquinoxaline 1,4-Dioxide] | 12.5 (≈ 34.9 µM) | 25 (≈ 69.8 µM) | 25 (≈ 69.8 µM) | 60 | 30
